Results as given in patent publication US20230416330A1, “Optimized GIP Peptide Analogues” (Antag Therapeutics ApS, priority 2019, published 2023).
Like-named read-outs stand apart in the source and are kept apart here. Starred links: 1 amine or outer side, 2 acyl side, 3 side chain; linkers in the order of their positions; H or OH if unused. Non-standard residues stand in square brackets, D forms with d. Residues, ends and D or L forms follow the SMILES beside them. Groups on a side chain read outwards from the residue. *: point of attachment. C18 diacid = O=C(O)CCCCCCCCCCCCCCCCC(=O)*; C16 diacid = O=C(O)CCCCCCCCCCCCCCC(=O)*; γGlu = O=C(O)[C@H](CCC(=O)[*:2])N[*:1]; Glutaryl = O=C(CCCC(=O)[*:2])[*:1]; AEEA = NCCOCCOCC(=O)O; Aib = CC(C)(N)C(=O)O

Experiments:
[1] = Physical stability: fibril formation in Thioflavin T (ThT) assay with agitation; assay type: physicochemical; settings: 25° C., agitation
How it was run: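 Read-out is continuous ThT fluorescence at 486 nm, with lag time taken where signal reaches 10% between pre- and post-transition baselines. Filtered samples (1, 5, 7.5 or 15 mg/ml; pH 7.4 phosphate buffer or NaOH-adjusted water) were stressed at 25° C. by orbital rotation at 300 rpm with one silica bead per well.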

human GIP receptor = molecular target: T1, human GIP receptor (Homo sapiens, UniProt P48546); experiment: cAMP assay Alternative 2 (Gaddum assay), antagonist potency pKb; assay type: cell-based
T1 construct: host or cells: HEK-293 cells, transient transfection (Lipofectamine 2000), cDNA in pCMV-Script vector
T1 sequence (P48546 22-466): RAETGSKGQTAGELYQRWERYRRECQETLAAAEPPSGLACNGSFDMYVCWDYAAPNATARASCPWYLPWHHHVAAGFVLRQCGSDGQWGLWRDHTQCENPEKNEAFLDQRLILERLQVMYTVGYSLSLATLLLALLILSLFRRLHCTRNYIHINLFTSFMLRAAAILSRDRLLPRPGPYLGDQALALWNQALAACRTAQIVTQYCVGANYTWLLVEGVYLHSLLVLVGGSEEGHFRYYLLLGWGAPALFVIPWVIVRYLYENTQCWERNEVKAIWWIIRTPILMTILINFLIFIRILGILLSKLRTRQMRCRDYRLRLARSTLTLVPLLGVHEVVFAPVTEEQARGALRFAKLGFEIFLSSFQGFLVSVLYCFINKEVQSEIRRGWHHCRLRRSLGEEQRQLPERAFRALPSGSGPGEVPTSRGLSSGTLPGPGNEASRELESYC
Experimental: HEK293 cells were cultured in 10% CO2 and 37° C. in Dulbecco's modified Eagle's medium supplemented with 10% fetal bovine serum, 2 mM glutamine, 180 units/ml penicillin, and 45 µg/ml streptomycin. Transient transfection with hGIPR for the CisBio assay from Table 2C was performed by using Lipofectamine 2000.
Antagonist potency (pKb) was estimated in a functional setting. The estimated pKb values were calculated from the shifts of the agonist-concentration-response curves in the presence of a single dose of GIP peptide antagonists using the Gaddum equation: pKb=log(DR-1)-log(B), where DR (EC50′/EC50) is the dose ratio calculated from EC50 of GIP1-42 obtained in the presence and absence (EC50) of antagonist, and B is the antagonist concentration used.
The in vitro functional assessment of compounds towards human GIP receptor was determined in HEK-293 cells transiently expressing the receptor. On the day of the assay, cells were resuspended in HBSS buffer (Gibco, 14025-50) supplemented with […] (Gibco, 15630-106), 0.1% Pluronic F-68 (Gibco, 24040-032) and 0.1% casein (Sigma, C4765), and plated in 384-well plates at a density of 3500 cells/well. The GIP peptide analogues of the present disclosure were diluted in HBSS buffer supplemented with 20 mM HEPES, 0.1% pluronic, 0.1% casein and 500 uM IBMX. […] Increasing dose of agonist (GIP1-42) was subsequently added to cells and incubated for additionally 30 min at 37° C. The intracellular cAMP was quantitatively determined using the CisBio cAMP Dynamic 2 HTRF Assay Kit. The assay is based on a competition between native cAMP produced by cells and cAMP labeled with the dye d2 for binding to a cryptate labeled antibody. The specific signal (i.e. energy transfer signal) is inversely proportional to the concentration of cAMP in the sample.
The cAMP-d2 conjugate and the antibody anti-cAMP-Cryptate, both diluted in lysis buffer provided in the kit, were added to the cells according to the manufacturer's protocol. The resulting competitive assay was incubated for 60 minutes at room temperature, and the signal was detected by using a PerkinElmer Envision® instrument with excitation at 320 nm and emission at 665 nm and 620 nm. The HTRF ratio (emission at 665 nm/620 nm*10,000) is inversely proportional to the amount of cAMP present and is converted to nM cAMP per well using a cAMP standard curve.

[2] = Solubility by visual inspection of peptide solutions; assay type: physicochemical
How it was run: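 Solubility scored by eye: clear, colorless appearance after gentle mixing. Samples prepared at 1, 5, 7.5 or 15 mg/ml in either pH 7.4 water (NaOH-adjusted) or 50 mM sodium phosphate buffer, pH 7.4.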

[3] = Table 2C, Gaddum equation, single antagonist dose, HEK-293 hGIPR, read-out: nM (Kb)

Structure (SMILES) | Avr lag time (h) ([1]; 1 mg/ml, TFA, Phosphate (7.4)) | Avr lag time (h) ([1]; 7.5 mg/ml, Na, MilliQ (8)) | Avr lag time (h) ([1]; 15 mg/ml, Na, MilliQ (8)) | Kb (human GIP receptor; [3]) [nM] | Visual appearance ([2]; 1 mg/ml, TFA, Phosphate (7.4)) | Visual appearance ([2]; 7.5 mg/ml, Na, MilliQ (8)) | Visual appearance ([2]; 15 mg/ml, Na, MilliQ (8)) | Kb (human GIP receptor) [nM]
CC[C@H](C)[C@H](NC(=O)[C@H](CCCCN)NC(=O)[C@H](CCC(=O)O)NC(=O)[C@H](CC(C)C)NC(=O)C(C)(C)NC(=O)[C@@H](NC(=O)[C@H](CO)NC(=O)[C@H](Cc1ccc(O)cc1)NC(=O)[C@H](CCC(=O)O)NC(=O)[C@H](CO)NC(=O)[C@@H](NC(=O)[C@H](Cc1ccccc1)NC(=O)[C@@H](NC(=O)CNC(=O)CCCC(=O)O)[C@@H](C)O)[C@@H](C)CC)[C@@H](C)CC)C(=O)N[C@@H](CCCCNC(=O)COCCOCCNC(=O)COCCOCCNC(=O)CC[C@H](NC(=O)CCCCCCCCCCCCCCCCC(=O)O)C(=O)O)C(=O)N[C@@H](CCC(N)=O)C(=O)N[C@@H](CCC(N)=O)C(=O)N[C@@H](CCC(=O)O)C(=O)N[C@@H](Cc1ccccc1)C(=O)N[C@H](C(=O)N[C@@H](CCC(=O)O)C(=O)N[C@@H](Cc1c[nH]c2ccccc12)C(=O)N[C@@H](CC(C)C)C(=O)N[C@@H](CC(C)C)C(=O)N[C@@H](C)C(=O)N[C@@H](CCC(N)=O)C(=O)N[C@@H](CCCCN)C(=O)N1CCC[C@H]1C(=O)N[C@@H](CO)C(=O)N[C@@H](CO)C(=O)NCC(=O)N[C@@H](C)C(=O)N1CCC[C@H]1C(=O)N1CCC[C@H]1C(=O)N1CCC[C@H]1C(=O)N[C@@H](CO)C(N)=O)C(C)C [AT713] (Glutaryl-GTFISEYSI[Aib]LEKIK([AEEA-AEEA-γGlu-C18 diacid])QQEFVEWLLAQKPSSGAPPPS-NH2) | fnd (Fnd = fibrils not detected within experiment time (96 hours) with agitation.) | fnd (Fnd = fibrils not detected within experiment time (96 hours) with agitation.) | fnd (Fnd = fibrils not detected within experiment time (96 hours) with agitation.) | 0.31 | Clear | Clear | Clear | 
CC[C@H](C)[C@H](NC(=O)[C@H](CCCCN)NC(=O)[C@H](CCC(=O)O)NC(=O)[C@H](CC(C)C)NC(=O)C(C)(C)NC(=O)[C@@H](NC(=O)[C@H](CO)NC(=O)[C@H](Cc1ccc(O)cc1)NC(=O)[C@H](CCC(=O)O)NC(=O)[C@H](CO)NC(=O)[C@@H](NC(=O)[C@H](Cc1ccccc1)NC(=O)[C@@H](NC(=O)CNC(=O)[C@@H](N)CCC(=O)O)[C@@H](C)O)[C@@H](C)CC)[C@@H](C)CC)C(=O)N[C@@H](CCCCNC(=O)C(C)(C)NC(=O)CCCCCCCCCCCCCCC(=O)O)C(=O)N[C@@H](CCC(N)=O)C(=O)N[C@@H](CCC(N)=O)C(=O)N[C@@H](CCC(=O)O)C(=O)N[C@@H](Cc1ccccc1)C(=O)N[C@H](C(=O)N[C@@H](CCC(=O)O)C(=O)N[C@@H](Cc1c[nH]c2ccccc12)C(=O)N[C@@H](CC(C)C)C(=O)N[C@@H](CC(C)C)C(=O)N[C@@H](C)C(=O)N[C@@H](CCC(N)=O)C(=O)N[C@@H](CCCCN)C(=O)N1CCC[C@H]1C(=O)N[C@@H](CO)C(=O)N[C@@H](CO)C(=O)NCC(=O)N[C@@H](C)C(=O)N1CCC[C@H]1C(=O)N1CCC[C@H]1C(=O)N1CCC[C@H]1C(=O)N[C@@H](CO)C(=O)O)C(C)C [AT720] (H-EGTFISEYSI[Aib]LEKIK([Aib-C16 diacid])QQEFVEWLLAQKPSSGAPPPS-OH; N-terminus assumed) |  | fnd (Fnd = fibrils not detected within experiment time (96 hours) with agitation.) | fnd (Fnd = fibrils not detected within experiment time (96 hours) with agitation.) | 0.29 |  | Clear | Clear | 
CC[C@H](C)[C@H](NC(=O)[C@H](CCCCN)NC(=O)[C@H](CC(=O)O)NC(=O)[C@H](CCSC)NC(=O)[C@H](CCCCNC(=O)CCCCCCCCCCCCCCC(=O)O)NC(=O)[C@@H](NC(=O)[C@H](CO)NC(=O)[C@H](Cc1ccc(O)cc1)NC(=O)[C@H](CC(=O)O)NC(=O)[C@H](CO)NC(=O)[C@@H](NC(=O)[C@H](Cc1ccccc1)NC(=O)[C@@H](NC(=O)CNC(=O)[C@@H](N)CCC(=O)O)[C@@H](C)O)[C@@H](C)CC)[C@@H](C)CC)C(=O)N[C@@H](Cc1c[nH]cn1)C(=O)N[C@@H](CCC(N)=O)C(=O)N[C@@H](CCC(N)=O)C(=O)N[C@@H](CC(=O)O)C(=O)N[C@@H](Cc1ccccc1)C(=O)N[C@H](C(=O)N[C@@H](CCC(=O)O)C(=O)N[C@@H](Cc1c[nH]c2ccccc12)C(=O)N[C@@H](CC(C)C)C(=O)N[C@@H](CC(C)C)C(=O)N[C@@H](C)C(=O)N[C@@H](CCC(N)=O)C(=O)N[C@@H](CCCCN)C(=O)N1CCC[C@H]1C(=O)N[C@@H](CO)C(=O)N[C@@H](CO)C(=O)NCC(=O)N[C@@H](C)C(=O)N1CCC[C@H]1C(=O)N1CCC[C@H]1C(=O)N1CCC[C@H]1C(=O)N[C@@H](CO)C(=O)O)C(C)C [AT740] (H-EGTFISDYSIK(C16 diacid)MDKIHQQDFVEWLLAQKPSSGAPPPS-OH; N-terminus assumed) | fnd (Fnd = fibrils not detected within experiment time (96 hours) with agitation.) |  |  |  | Clear |  |  | 14
CC[C@H](C)[C@H](NC(=O)[C@H](CCCCN)NC(=O)[C@H](CCC(=O)O)NC(=O)[C@H](CC(C)C)NC(=O)C(C)(C)NC(=O)[C@@H](NC(=O)[C@H](CO)NC(=O)[C@H](Cc1ccc(O)cc1)NC(=O)[C@H](CCC(=O)O)NC(=O)[C@H](CO)NC(=O)[C@@H](NC(=O)[C@H](Cc1ccccc1)NC(=O)[C@@H](NC(=O)CNC(=O)[C@@H](N)CCC(=O)O)[C@@H](C)O)[C@@H](C)CC)[C@@H](C)CC)C(=O)N[C@@H](CCCCNC(=O)COCCOCCNC(=O)COCCOCCNC(=O)CC[C@H](NC(=O)CCCCCCCCCCCCCCCCC(=O)O)C(=O)O)C(=O)N[C@@H](CCC(N)=O)C(=O)N[C@@H](CCC(N)=O)C(=O)N[C@@H](CC(=O)O)C(=O)N[C@@H](Cc1ccccc1)C(=O)N[C@H](C(=O)N[C@@H](CCC(=O)O)C(=O)N[C@@H](Cc1c[nH]c2ccccc12)C(=O)N[C@@H](CC(C)C)C(=O)N[C@@H](CC(C)C)C(=O)N[C@@H](C)C(=O)N[C@@H](CCC(N)=O)C(=O)N[C@@H](CCCCN)C(=O)N1CCC[C@H]1C(=O)N[C@@H](CO)C(=O)N[C@@H](CO)C(=O)NCC(=O)N[C@@H](C)C(=O)N1CCC[C@H]1C(=O)N1CCC[C@H]1C(=O)N1CCC[C@H]1C(=O)N[C@@H](CO)C(=O)O)C(C)C [AT754] (H-EGTFISEYSI[Aib]LEKIK([AEEA-AEEA-γGlu-C18 diacid])QQDFVEWLLAQKPSSGAPPPS-OH; N-terminus assumed) | fnd (Fnd = fibrils not detected within experiment time (96 hours) with agitation.) |  |  | 2.2 | Clear |  |  | 
